Results from paper PMC5308787, “Isoprenoid-phospholipid conjugates as potential therapeutic agents: Synthesis, characterization and antiproliferative studies” (PLoS ONE, 2017).

How the values were obtained:
[1] = tested on: drug resistant LOVO/DX line vs drug sensitive LoVo line; assay: Resistance index (RI): IC50 LOVO/DX divided by IC50 LoVo; type: cell-based, human; details: for Resistance index (RI): RI = IC50 resistant line / IC50 non-resistant line, 0<RI<2 able to overcome drug resistance, 2<RI<10 moderate ability, RI>10 no influence; for able to overcome the barrier of P-gp-dependent resistance: judged from RI
Description: (§1) The results of antiproliferative activity were given as IC50 values. Using this parameter we calculated also the resistance indexes (RI) dividing the IC50 values of selected compounds estimated for drug resistant cell LOVO/DX line by respective values designated for drug sensitive LoVo line. According to Harker et al. three categories of the cells could be distinguished: (a) the cells are drug-sensitive—if the ratio approaches 0–2; (b) the cells are moderately drug-resistant—if the ratio ranges from 2 to 10; (c) the cells are markedly drug-resistant—if the ratio is higher than 10.

MCF-7 (breast cancer) = assay: Antiproliferative SRB assay, 72 h exposure; type: cell-based, human; details: n.a. = no activity in concentration of 5, 25, 125, 625 μM
Description: (§2) The biological studies were performed in vitro using human cancer cell lines: MV4-11 (human biphenotypic B myelomonocytic leukaemia), A-549 (non-small cell lung cancer), MCF-7 (breast cancer), LoVo (colon cancer), LoVo/DX (colon cancer drug resistant), HepG2 (liver cancer) and BALB/3T3 (normal mice fibroblasts). These lines were obtained from American Type Culture Collection (Rockville, Maryland, U.S.A.). The cell line is being maintained in the Institute of Immunology and Experimental Therapy, Wroclaw, Poland. All cell lines were grown at 37°C with 5% CO2 humidified atmosphere and were cultured in cultured medium according to the method described before.
(§3) Prior to usage, the compounds were dissolved in DMSO or in mixture of 99.8% ethanol and DMSO (1:1) to the concentration of 25 or 50 mM, and subsequently diluted in culture medium to reach the required concentrations (ranging from 5 to 625 μM).
(§4) Twenty-four hours prior to the addition of tested compounds, the cells were plated in 96-well plates (Sarstedt, Germany) at a density of 1 × 10^4 cells per well in 100 μL of culture medium. The assay was performed after 72 h of exposure to varying concentrations of the tested agents. The in vitro cytotoxic effect of tested agents was examined using the MTT (for MV4-11 cells) or SRB assay which were described previously. Each compound in each concentration was tested in triplicate in a single experiment, which was repeated 3–5 times.
as §1

HepG2 (liver cancer) = assay: Antiproliferative SRB assay, 72 h exposure; type: cell-based, human; details: Homo sapiens, HepG2, mean ± SD of 3–5 experiments, n.a. = no activity in concentration of 5, 25, 125, 625 μM
Description: as §2, §3, §4, §1

LoVo (colon cancer) = assay: Antiproliferative SRB assay, 72 h exposure; type: cell-based, human; details: SRB, 72 h, mean ± SD of 3–5 experiments, n.a. = no activity in concentration of 5, 25, 125, 625 μM
Description: as §2, §3, §4, §1

[2] = tested on: A-549 (non-small cell lung cancer); assay: Antiproliferative SRB assay, 72 h exposure; type: cell-based, human; details: n.a. = no activity in concentration of 5, 25, 125, 625 μM
Description: as §2, §3, §4, §1

[3] = tested on: LoVo/DX (colon cancer drug resistant); assay: Antiproliferative SRB assay, 72 h exposure; type: cell-based, human; details: Homo sapiens, LoVo/DX, mean ± SD of 3–5 experiments, n.a. = no activity in concentration of 5, 25, 125, 625 μM
Description: as §2, §3, §4, §1

[4] = tested on: BALB/3T3 (normal mice fibroblasts); assay: Antiproliferative SRB assay, 72 h exposure; type: cell-based; details: n.a. = no activity in concentration of 5, 25, 125, 625 μM
Description: as §2, §3, §4, §1

[5] = tested on: MV4-11 (human biphenotypic B myelomonocytic leukaemia); assay: Antiproliferative MTT assay, 72 h exposure; type: cell-based
Description: as §2, §3, §4, §1

[6] = Homo sapiens, MCF7, mean ± SD of 3–5 experiments
[7] = Homo sapiens, A549, mean ± SD of 3–5 experiments
[8] = Mus musculus, BALB/3T3, mean ± SD of 3–5 experiments
[9] = Homo sapiens, MV4-11, mean ± SD of 3–5 independent experiments

| Structure (SMILES) | Resistance index (RI) [1] | IC50 (MCF-7 (breast cancer); [6]) | IC50 (HepG2 (liver cancer)) | IC50 (LoVo (colon cancer); Homo sapiens, LoVo) | IC50 [2, 7] | IC50 [3] | IC50 [4, 8] | IC50 [5, 9] | IC50 (MCF-7 (breast cancer); mean ± SD of 3–5 experiments) | IC50 (LoVo (colon cancer)) | IC50 ([2]; mean ± SD of 3–5 experiments) | IC50 ([4]; mean ± SD of 3–5 experiments) | IC50 ([5]; mean ± SD of 3–5 independent experiments) | able to overcome the barrier of P-gp-dependent resistance [1] |
| --- | --- | --- | --- | --- | --- | --- | --- | --- | --- | --- | --- | --- | --- | --- |
| C=CC(C)(CC/C=C(\C)CCC=C(C)C)CC(=O)OC[C@@H](O)COP(=O)([O-])OCC[N+](C)(C)C (some centres unmarked) [Compound 8b] | 1.99 | 250 ± 45.2 µM | 344 ± 40.9 µM | 241 ± 15.1 µM | 260 ± 33.6 µM | 280 ± 44.4 µM | 297 ± 18.6 µM | 112 ± 39.8 µM | – | – | – | – | – | – |
| CCCCCCCCCCCCCCCC(=O)OC[C@H](COP(=O)([O-])OCC[N+](C)(C)C)OC(=O)CCCCCCCCCCCCCCC [DPPC, reference compound] | – | – | – | – | – | – | – | – | 398 ± 194 µM | 274 ± 17.1 µM | 230 ± 31.3 µM | 48.8 ± 2.1 µM | 179 ± 30.2 µM | – |
| C=CC(C)(CCC=C(C)C)CC(=O)OC[C@H](COP(=O)([O-])OCC[N+](C)(C)C)OC(=O)CC(C)(C=C)CCC=C(C)C (some centres unmarked) [Compound 6a] | – | 209 ± 12.9 µM | 286.4 ± 1.3 µM | 230 ± 6.9 µM | 263 ± 19.7 µM | 245 ± 19.7 µM | 280 ± 8.2 µM | 50.1 ± 3.5 µM | – | – | – | – | – | – |
| C=CC(C)(CCC=C(C)C)CC(=O)OC[C@H](COP(=O)([O-])OCC[N+](C)(C)C)OC(=O)CCCCCCCCCCCCCCC (some centres unmarked) [Compound 9a] | – | 40 ± 1.9 µM | 59.2 ± 4.6 µM | 32.8 ± 5.1 µM | 38.3 ± 6.7 µM | 52.7 ± 3.3 µM | 57.6 ± 1 µM | 31.8 ± 1.62 µM | – | – | – | – | – | – |
| CCC/C=C1/C(C)(C)CCCC1(C)CC(=O)O[C@H](COC(=O)CCCCCCCCCCCCCCC)COP(=O)([O-])OCC[N+](C)(C)C (stereo partly drawn) [Compound 7c, (2’R)-1’-palmitoyl-2’-{2-[(3R,2"E)-2"-butylidene-1",3",3"-trimethyl]cyclohexyl}acetyl-sn-glycero-3’-phospocholine + (2’R)-1’-palmitoyl-2’-{2-[(3S,2"E)-2"-butylidene-1",3",3"-trimethyl]cyclohexyl}acetyl-sn-glycero-3’-phospocholine] | 1.35 | 89.7 ± 11.3 µM | 134 ± 51 µM | 54.4 ± 3.2 µM | 75.7 ± 10.6 µM | 111 ± 19.4 µM | 276 ± 25.7 µM | 65.1 ± 12.2 µM | – | – | – | – | – | exception |
| C=CC(C)(CCC=C(C)C)CC(=O)O[C@H](COC(=O)CCCCCCCCCCCCCCC)COP(=O)([O-])OCC[N+](C)(C)C (stereo partly drawn) [Compound 7a, (2’R)-1’-palmitoyl-2’-[(3R)-3,7-dimethyl-3-vinylocta-6-enyl]-sn-glycero-3’-phosphocholine + (2’R)-1’-palmitoyl-2’-[(3S)-3,7-dimethyl-3-vinylocta-6-enyl]-sn-glycero-3’-phosphocholine] | 1.91 | 66.6 ± 4.2 µM | 159 ± 31.2 µM | 57.4 ± 0.7 µM | 72.6 ± 1.6 µM | 154 ± 7.9 µM | 246 ± 13.9 µM | 95 ± 15.2 µM | – | – | – | – | – | exception |
| C=CC(C)(CCCC(C)CCCC(C)CCCC(C)C)CC(=O)O (centres unmarked) [4 (PHYTA), 3,7,11,15-Tetramethyl-3-vinylhexadecanoic acid] | – | – | – | – | – | – | – | 39.3 ± 5.85 µM | – | – | – | – | – | – |
| C=CC(C)(CCC=C(C)C)CC(=O)OC[C@@H](O)COP(=O)([O-])OCC[N+](C)(C)C (some centres unmarked) [Compound 8a] | 1.61 | 372 ± 28.1 µM | – | 245 ± 68.5 µM | – | 469 ± 3.2 µM | – | 269 ± 18 µM | – | – | – | – | – | – |
| C=CC(C)(CCCC(C)CCCC(C)CCCC(C)C)CC(=O)OC[C@H](COP(=O)([O-])OCC[N+](C)(C)C)OC(=O)CCCCCCCCCCCCCCC (some centres unmarked) [Compound 9d] | – | – | – | – | – | – | – | 259 ± 37 µM | – | – | – | – | – | – |
| C=CC(C)(CCCC(C)CCCC(C)CCCC(C)C)CC(=O)OC[C@@H](O)COP(=O)([O-])OCC[N+](C)(C)C (some centres unmarked) [Compound 8d] | – | – | – | – | – | – | – | 47.4 ± 6.35 µM | – | – | – | – | – | – |
